In patent US20140303396A1, “Method for Preparing High-Purity Fesoterodine Fumarate” (CHEMI S.P.A., priority 2009, published 2014):

What was measured:
[1] = Solution stability in methylethylketone at T = 40° C. (HPLC); assay type: physicochemical
Experimental: In detail, the experiment related to Table 1 consists of dissolving fesoterodine fumarate in methylethylketone at 40° C., drawing samples of the freshly dissolved solution (time 0), after 1, 3 and 20 hours of maintenance at 40° C. and analyzing them in HPLC in order to verify their purity.

[2] = Solid stability at T = 60° C. in atmosphere with 60% relative humidity (HPLC); assay type: physicochemical; design: Impurity RRt = 1.05 / Impurity RRt = 1.34 / Diester impurity: unit not given here
Experimental: In confirmation thereof, another stability test was carried out at 60° C. on the crystallized solid product, whose results are reported in Table 2. In detail, the experiment consists of introducing a sample of fesoterodine fumarate in an oven capable of maintaining a temperature of 60° C. and 60% relative humidity, drawing samples of the freshly introduced substance (time 0) after 24, 48, 72 and 144 hours staying in such conditions, and analyzing them in HPLC in order to verify their purity.

Feso fumaric ester impurity ([1]; t = 0): 0.07
HPLC Purity ([1]; t = 0): 99.87 Area %
Impurity RRt = 1.34 ([1]; t = 0): 0.06
Feso fumaric ester impurity ([1]; t = 1 hour): 0.09
HPLC Purity ([1]; t = 1 hour): 99.85 Area %
Impurity RRt = 1.34 ([1]; t = 1 hour): 0.06
(R)-feso-deacyl ([1]; t = 3 hours): 0.01%
Diester impurity ([1]; t = 3 hours): 0.04
Feso fumaric ester impurity ([1]; t = 3 hours): 0.12
HPLC Purity ([1]; t = 3 hours): 99.77 Area %
Impurity RRt = 1.34 ([1]; t = 3 hours): 0.06
(R)-feso-deacyl ([1]; t = 20 hours): 0.02%
Diester impurity ([1]; t = 20 hours): 0.06
Feso fumaric ester impurity ([1]; t = 20 hours): 0.14
HPLC Purity ([1]; t = 20 hours): 99.70 Area %
Impurity RRt = 1.34 ([1]; t = 20 hours): 0.08
(R)-feso-deacyl ([2]; t = 0): 0.02%
Diester impurity ([2]; t = 0): 0.04
Feso fumaric ester impurity ([2]; t = 0): 0.09
HPLC Purity ([2]; t = 0): 99.85 Area %
(R)-feso-deacyl ([2]; t = 24 h): 0.02%
Diester impurity ([2]; t = 24 h): 0.04
Feso fumaric ester impurity ([2]; t = 24 h): 0.11
HPLC Purity ([2]; t = 24 h): 99.83 Area %
(R)-feso-deacyl ([2]; t = 48 h): 0.02%
Diester impurity ([2]; t = 48 h): 0.04
Feso fumaric ester impurity ([2]; t = 48 h): 0.12
HPLC Purity ([2]; t = 48 h): 99.74 Area %
Impurity RRt = 1.34 ([2]; t = 48 h): 0.08
(R)-feso-deacyl ([2]; t = 72 h): 0.03%
Diester impurity ([2]; t = 72 h): 0.04
Feso fumaric ester impurity ([2]; t = 72 h): 0.13
HPLC Purity ([2]; t = 72 h): 99.72 Area %
Impurity RRt = 1.05 ([2]; t = 72 h): 0.02
Impurity RRt = 1.34 ([2]; t = 72 h): 0.06
(R)-feso-deacyl ([2]; t = 144 h): 0.05%
Diester impurity ([2]; t = 144 h): 0.04
Feso fumaric ester impurity ([2]; t = 144 h): 0.14
HPLC Purity ([2]; t = 144 h): 99.64 Area %
Impurity RRt = 1.05 ([2]; t = 144 h): 0.03
Impurity RRt = 1.34 ([2]; t = 144 h): 0.07
RRt = 1.86 ([2]; t = 144 h): 0.03%
SMILES: CC(C)C(=O)Oc1ccc(CO)cc1[C@H](CCN(C(C)C)C(C)C)c1ccccc1.O=C(O)/C=C/C(=O)O [fesoterodine fumarate, 2-((R)-3-diisopropylammonium-1-phenylpropyl)-4-(hydroxymethyl) phenyl isobutyrate hydrogen fumarate]
